The record followed here is patent US11931423B2, “Glucose oxidase-nanoparticle bioconjugates for cancer treatment” (UNIVERSITY OF PITTSBURGH—OF THE COMMONWEALTH SYSTEM OF …, priority 2017, dated 2024).

The subject of the experiment is A431 cells with high EGFR expression. The experiment in a line: A431 cell viability (CellTiter-Glo viability assay). The format is cell-based. The following applies: Homo sapiens, A-431, 50 μM (30 μg/mL), after 24 h, PBS = 100% viability. As to the method:
As a comparison, the A431 cells were also treated with SPION alone, a mixture of unconjugated SPION and GOx, and doxorubicin (a chemotherapy drug).
A431 cancer cells were purchased from ATCC. They were cultured in Dulbecco's Modified Eagle Medium (DMEM) containing 10% FBS, penicillin (100 U/mL), and streptomycin (100 μg/mL) at 37° C. in a humidified atmosphere containing 5% CO2 and 95% air.
50 μL SPION, the mixture of GOx and SPION without conjugation, mAb-GOx-SPION, doxorubicin, or PBS (as a control) were each added to a 96-well plate seeded with A431 cancer cells, followed by addition of 100 μL of DMEM containing 4 g/L glucose. After being incubated for various amounts of time, the cells were washed with PBS 3 times. 100 μL DMEM was added before cell viability was measured by using a CellTiter-Glo viability assay kit.
The cytotoxic effects of the system as functions of the concentrations of both cetuximab-GOx-SPION and glucose were investigated. 50 μL cetuximab-GOx-SPION (1.0 μg/mL) was added to 96-well plates seeded with A431 and HeLa cancer cells, followed by addition of 100 μL of DMEM that contains glucose at 20 g/L. After 1.5 h incubation, the cells were washed with PBS 3 times and then cultured in 200 μL of DMEM. After being incubated for another 12 h, cell viability was measured by using CellTiter-Glo viability assay kit. […]

A word on the viability: it is a per cent measure of how many cells are alive, often set against a control. A lower viability goes with a greater loss of cells. `COc1cccc2c1C(=O)c1c(O)c3c(c(O)c1C2=O)C[C@@](O)(C(=O)CO)C[C@@H]3O[C@H]1C[C@H](N)[C@H](O)[C@H](C)O1` [doxorubicin] returned a viability at 50 µM of about 3%.
